{"source": "patent US8106048B2", "about": "“Heterocyclic NF-κB inhibitors” (4SC AG, priority 2004, dated 2012)"}
{"system": "A549-NF-κB-SEAP reporter cells", "test": "Inhibition of NF-κB-induced inflammation: […] NINA Instant Assay, TNF-α stimulated SEAP reporter", "format": "cell-based", "details": "% inhibition classes", "text": "For the determination of anti-inflammatory activity of the compounds the […]® NINA Instant Assay from Cell Culture Service GmBH was used. This assay is based on […] recombinant A549-NF-κB-SEAP reporter cells preceded in 96-well flat bottom plates. As the transfected reportergen for SEAP (secreted embryonic alkaline phosphatase) is under transcriptional control of a NF-κB-responsive element, the expression of this reporter is activated upon stimulation with TNF-α. SEAP secretion into the culture supernatant can be detected by the chemiluminescent substrate CSPD®. Test compounds that inhibit the NF-κB activation show reduced SEAP activity and reduced luminescent readout.\nFollowing 18 h of reactivation at 37° C., 5% CO2 and 90% relative humidity, the cells were incubated with 0.01 up to 100 μM of test compound for 4.5 h before stimulation with 2 ng/ml TNF-α. After stimulation with TNF-α for 22 h endogenous phosphatases were inactivated and CSPD® substrate was supplied for 40 min. SEAP activity then was quantified by measuring luminescence as relative light units (RLU) using a Tecan Ultra reader. Each data point was recorded in quadruplicates and EC50 values were calculated via fitting function and the Microsoft Excel Solver."}
{"smiles": "N=C(NC(=O)c1coc(NC(=O)c2ccccc2OC(F)(F)F)n1)Nc1nc2ccccc2[nH]1", "note": "[compound 28]", "Biological activity (inhibition in the NF-κB inflammation assay)": "+++ (“+++” stands for 90-100% inhibition)"}
{"smiles": "COc1ccc(OC)c(N2CCC(c3nc(C(=O)N4CCN(c5cccc(C(F)(F)F)c5)CC4)cs3)CC2)c1", "note": "[compound 29]", "Biological activity (inhibition in the NF-κB inflammation assay)": "++ (“++” means 80-90%)"}
{"smiles": "O=C(Nc1nc(C(=O)N2CCN(c3cccc(C(F)(F)F)c3)CC2)cs1)c1ccccc1OC(F)(F)F", "note": "[compound 32]", "Biological activity (inhibition in the NF-κB inflammation assay)": "+++ (“+++” stands for 90-100% inhibition)"}
{"smiles": "O=C(CCC1CCCC1)Nc1nc(C(=O)N2CCN(c3cccc(C(F)(F)F)c3)CC2)cs1", "note": "[compound 33]", "Biological activity (inhibition in the NF-κB inflammation assay)": "+++ (“+++” stands for 90-100% inhibition)"}
{"smiles": "O=C(Nc1nc(C(=O)N2CCN(c3cccc(C(F)(F)F)c3)CC2)cs1)c1ccc(C(F)(F)F)c(F)c1", "note": "[compound 34]", "Biological activity (inhibition in the NF-κB inflammation assay)": "+++ (“+++” stands for 90-100% inhibition)"}
{"smiles": "O=C(c1csc(C2CCN(CCC(c3ccccc3)c3ccccc3)CC2)n1)N1CCN(c2cccc(C(F)(F)F)c2)CC1", "note": "[compound 35]", "Biological activity (inhibition in the NF-κB inflammation assay)": "+++ (“+++” stands for 90-100% inhibition)"}
{"smiles": "O=C(CCC1CCCC1)N1CCN(c2nc(C(=O)N3CCN(c4cccc(C(F)(F)F)c4)CC3)cs2)CC1", "note": "[compound 37]", "Biological activity (inhibition in the NF-κB inflammation assay)": "+++ (“+++” stands for 90-100% inhibition)"}
{"smiles": "COc1ccccc1C(=O)N1CCN(c2nc(C(=O)N3CCN(c4cccc(C(F)(F)F)c4)CC3)cs2)CC1", "note": "[compound 38]", "Biological activity (inhibition in the NF-κB inflammation assay)": "+++ (“+++” stands for 90-100% inhibition)"}
{"smiles": "O=C(c1csc(N2CCN(C(=O)c3ccccc3OC(F)(F)F)CC2)n1)N1CCN(c2cccc(C(F)(F)F)c2)CC1", "note": "[compound 39]", "Biological activity (inhibition in the NF-κB inflammation assay)": "+++ (“+++” stands for 90-100% inhibition)"}
{"smiles": "O=C(Nc1nc(C(=O)N2CCN(c3ccc(Cl)c(Cl)c3)CC2)cs1)c1ccccc1OC(F)(F)F", "note": "[compound 41]", "Biological activity (inhibition in the NF-κB inflammation assay)": "+++ (“+++” stands for 90-100% inhibition)"}
{"smiles": "COc1ccccc1N1CCN(C(=O)c2csc(NC(=O)c3ccccc3OC(F)(F)F)n2)CC1", "note": "[compound 44]", "Biological activity (inhibition in the NF-κB inflammation assay)": "++ (“++” means 80-90%)"}
{"smiles": "O=C(c1csc(C2CCN(C(=O)c3ccccc3OC(F)(F)F)CC2)n1)N1CCN(c2nc3ccccc3n2Cc2ccc(F)cc2)CC1", "note": "[compound 48]", "Biological activity (inhibition in the NF-κB inflammation assay)": "+++ (“+++” stands for 90-100% inhibition)"}
{"smiles": "N=C(NC(=O)c1cnc(NC(=O)c2ccccc2OC(F)(F)F)s1)Nc1nc2ccccc2[nH]1", "note": "[compound 50]", "Biological activity (inhibition in the NF-κB inflammation assay)": "+++ (“+++” stands for 90-100% inhibition)"}
{"smiles": "O=C(Nc1nc(C(=O)N2CCN(c3cccc(C(F)(F)F)c3)CC2)cs1)Nc1ccccc1OC(F)(F)F", "note": "[compound 55]", "Biological activity (inhibition in the NF-κB inflammation assay)": "+++ (“+++” stands for 90-100% inhibition)"}
{"smiles": "O=C(Nc1nc(C(=O)N2CCN(C(c3ccccc3)c3ccccc3)CC2)cs1)c1ccccc1OC(F)(F)F", "note": "[compound 58]", "Biological activity (inhibition in the NF-κB inflammation assay)": "++ (“++” means 80-90%)"}
{"smiles": "O=C(c1cc(C(F)(F)F)cc(C(F)(F)F)c1)N1CCN(c2nc(C(=O)N3CCN(c4cccc(C(F)(F)F)c4)CC3)cs2)CC1", "note": "[compound 59]", "Biological activity (inhibition in the NF-κB inflammation assay)": "+ (“+” stands for 50-80% inhibition)"}
{"smiles": "O=C(c1ccc(C(F)(F)F)c(F)c1)N1CCN(c2nc(C(=O)N3CCN(c4cccc(C(F)(F)F)c4)CC3)cs2)CC1", "note": "[compound 60]", "Biological activity (inhibition in the NF-κB inflammation assay)": "+++ (“+++” stands for 90-100% inhibition)"}
{"smiles": "N#Cc1ccc(C(=O)N2CCN(c3nc(C(=O)N4CCN(c5cccc(C(F)(F)F)c5)CC4)cs3)CC2)cc1", "note": "[compound 61]", "Biological activity (inhibition in the NF-κB inflammation assay)": "+++ (“+++” stands for 90-100% inhibition)"}
{"smiles": "N#Cc1ccc(CN2CCN(c3nc(C(=O)N4CCN(c5cccc(C(F)(F)F)c5)CC4)cs3)CC2)cc1", "note": "[compound 62]", "Biological activity (inhibition in the NF-κB inflammation assay)": "+++ (“+++” stands for 90-100% inhibition)"}
{"smiles": "CC(C)(C)OC(=O)N1CCN(c2nc(C(=O)N3CCN(c4cccc(C(F)(F)F)c4)CC3)cs2)CC1", "note": "[compound 63]", "Biological activity (inhibition in the NF-κB inflammation assay)": "++ (“++” means 80-90%)"}
{"smiles": "O=C(c1csc(N2CCNCC2)n1)N1CCN(c2cccc(C(F)(F)F)c2)CC1", "note": "[compound 64]", "Biological activity (inhibition in the NF-κB inflammation assay)": "+ (“+” stands for 50-80% inhibition)"}
{"smiles": "COc1ccccc1N1CCN(c2nc(C(=O)N3CCN(c4cccc(C(F)(F)F)c4)CC3)cs2)CC1", "note": "[compound 65]", "Biological activity (inhibition in the NF-κB inflammation assay)": "++ (“++” means 80-90%)"}
{"smiles": "CC(=O)c1ccc(N2CCN(c3nc(C(=O)N4CCN(c5cccc(C(F)(F)F)c5)CC4)cs3)CC2)cc1", "note": "[compound 66]", "Biological activity (inhibition in the NF-κB inflammation assay)": "++ (“++” means 80-90%)"}
{"smiles": "O=C(c1csc(N2CCN(c3cccc(C(F)(F)F)c3)CC2)n1)N1CCN(c2cccc(C(F)(F)F)c2)CC1", "note": "[compound 67]", "Biological activity (inhibition in the NF-κB inflammation assay)": "+ (“+” stands for 50-80% inhibition)"}
{"smiles": "O=C(c1csc(N2CCN(c3ccccc3)CC2)n1)N1CCN(c2cccc(C(F)(F)F)c2)CC1", "note": "[compound 68]", "Biological activity (inhibition in the NF-κB inflammation assay)": "+ (“+” stands for 50-80% inhibition)"}
{"smiles": "O=C(c1csc(N2CCN(c3ccc(F)cc3)CC2)n1)N1CCN(c2cccc(C(F)(F)F)c2)CC1", "note": "[compound 69]", "Biological activity (inhibition in the NF-κB inflammation assay)": "++ (“++” means 80-90%)"}
{"smiles": "N#Cc1ccc(C(=O)N2CCC(c3nc(C(=O)N4CCN(c5cccc(C(F)(F)F)c5)CC4)cs3)CC2)cc1", "note": "[compound 70]", "Biological activity (inhibition in the NF-κB inflammation assay)": "++ (“++” means 80-90%)"}
{"smiles": "O=C(c1csc(N2CCN(Cc3ccccc3)CC2)n1)N1CCN(C(c2ccccc2)c2ccccc2)CC1", "note": "[compound 71]", "Biological activity (inhibition in the NF-κB inflammation assay)": "+++ (“+++” stands for 90-100% inhibition)"}
{"smiles": "O=C(c1csc(N2CCN(Cc3ccccc3)CC2)n1)N1CCN(c2cccc(C(F)(F)F)c2)CC1", "note": "[compound 72]", "Biological activity (inhibition in the NF-κB inflammation assay)": "+++ (“+++” stands for 90-100% inhibition)"}
{"smiles": "O=C(Nc1ccccc1)N1CCC(c2nc(C(=O)N3CCN(c4cccc(C(F)(F)F)c4)CC3)cs2)CC1", "note": "[compound 73]", "Biological activity (inhibition in the NF-κB inflammation assay)": "++ (“++” means 80-90%)"}
{"smiles": "O=C(Nc1cc(F)cc2c1OCCO2)N1CCC(c2nc(C(=O)N3CCN(c4cccc(C(F)(F)F)c4)CC3)cs2)CC1", "note": "[compound 74]", "Biological activity (inhibition in the NF-κB inflammation assay)": "++ (“++” means 80-90%)"}
{"smiles": "O=C(Nc1ccc2c(c1)OCCO2)N1CCC(c2nc(C(=O)N3CCN(c4cccc(C(F)(F)F)c4)CC3)cs2)CC1", "note": "[compound 75]", "Biological activity (inhibition in the NF-κB inflammation assay)": "++ (“++” means 80-90%)"}
{"smiles": "Cc1cc(NC(=O)N2CCC(c3nc(C(=O)N4CCN(c5cccc(C(F)(F)F)c5)CC4)cs3)CC2)c(C(F)(F)F)o1", "note": "[compound 76]", "Biological activity (inhibition in the NF-κB inflammation assay)": "++ (“++” means 80-90%)"}
{"smiles": "O=C(NCCc1cccs1)N1CCC(c2nc(C(=O)N3CCN(c4cccc(C(F)(F)F)c4)CC3)cs2)CC1", "note": "[compound 77]", "Biological activity (inhibition in the NF-κB inflammation assay)": "+++ (“+++” stands for 90-100% inhibition)"}
{"smiles": "CC(C)NC(=O)N1CCC(c2nc(C(=O)N3CCN(c4cccc(C(F)(F)F)c4)CC3)cs2)CC1", "note": "[compound 78]", "Biological activity (inhibition in the NF-κB inflammation assay)": "+ (“+” stands for 50-80% inhibition)"}
{"smiles": "O=C(Nc1ccccc1OC(F)(F)F)N1CCC(c2nc(C(=O)N3CCN(c4cccc(C(F)(F)F)c4)CC3)cs2)CC1", "note": "[compound 79]", "Biological activity (inhibition in the NF-κB inflammation assay)": "+++ (“+++” stands for 90-100% inhibition)"}
{"smiles": "COc1cccc(NC(=O)N2CCC(c3nc(C(=O)N4CCN(c5cccc(C(F)(F)F)c5)CC4)cs3)CC2)c1", "note": "[compound 80]", "Biological activity (inhibition in the NF-κB inflammation assay)": "+ (“+” stands for 50-80% inhibition)"}
{"smiles": "COc1cc(NC(=O)N2CCC(c3nc(C(=O)N4CCN(c5cccc(C(F)(F)F)c5)CC4)cs3)CC2)cc(OC)c1OC", "note": "[compound 81]", "Biological activity (inhibition in the NF-κB inflammation assay)": "++ (“++” means 80-90%)"}
{"smiles": "NC(=Nc1nc2ccccc2[nH]1)NC(=O)c1csc(NC(=O)c2ccccc2OC(F)(F)F)n1", "note": "[compound 82]", "Biological activity (inhibition in the NF-κB inflammation assay)": "+++ (“+++” stands for 90-100% inhibition)"}
{"smiles": "Nc1cc(=O)[nH]c(NC(=O)c2csc(C3CCN(C(=O)c4ccccc4OC(F)(F)F)CC3)n2)n1", "note": "[compound 83]", "Biological activity (inhibition in the NF-κB inflammation assay)": "+ (“+” stands for 50-80% inhibition)"}
{"smiles": "O=C(Nc1nnc(Cc2ccccc2)[nH]1)c1csc(C2CCN(C(=O)c3ccccc3OC(F)(F)F)CC2)n1", "note": "[compound 84]", "Biological activity (inhibition in the NF-κB inflammation assay)": "+ (“+” stands for 50-80% inhibition)"}
{"smiles": "CN(C)c1nc(NC(=O)c2csc(C3CCN(C(=O)c4ccccc4OC(F)(F)F)CC3)n2)cc(=O)[nH]1", "note": "[compound 85]", "Biological activity (inhibition in the NF-κB inflammation assay)": "+ (“+” stands for 50-80% inhibition)"}
{"smiles": "Cc1cc(=O)[nH]c(NC(=O)c2csc(C3CCN(C(=O)c4ccccc4OC(F)(F)F)CC3)n2)n1", "note": "[compound 86]", "Biological activity (inhibition in the NF-κB inflammation assay)": "+ (“+” stands for 50-80% inhibition)"}
{"smiles": "CN(C)c1ncnc(NC(=O)c2csc(C3CCN(C(=O)c4ccccc4OC(F)(F)F)CC3)n2)n1", "note": "[compound 88]", "Biological activity (inhibition in the NF-κB inflammation assay)": "+ (“+” stands for 50-80% inhibition)"}
{"smiles": "Nc1nc(NC(=O)c2csc(C3CCN(C(=O)c4ccccc4OC(F)(F)F)CC3)n2)n[nH]1", "note": "[compound 89]", "Biological activity (inhibition in the NF-κB inflammation assay)": "+ (“+” stands for 50-80% inhibition)"}
{"smiles": "N#CNC(=N)NC(=O)c1csc(C2CCN(C(=O)c3ccccc3OC(F)(F)F)CC2)n1", "note": "[compound 90]", "Biological activity (inhibition in the NF-κB inflammation assay)": "+ (“+” stands for 50-80% inhibition)"}
{"smiles": "N=C(NC(=O)c1csc(C2CCN(C(=O)C(c3ccccc3)c3ccccc3)CC2)n1)Nc1nc2ccccc2[nH]1", "note": "[compound 93]", "Biological activity (inhibition in the NF-κB inflammation assay)": "+ (“+” stands for 50-80% inhibition)"}
{"smiles": "N=C(NC(=O)c1csc(C2CCNCC2)n1)Nc1nc2ccccc2[nH]1", "note": "[compound 94]", "Biological activity (inhibition in the NF-κB inflammation assay)": "+ (“+” stands for 50-80% inhibition)"}
